# From ChEMBL document CHEMBL4840332, “Pd-Catalyzed Direct Diversification of Natural Anti-Alzheimer's Disease Drug: Synthesis and Biological Evaluation of N-Aryl Huperzine A Analogues” (J Nat Prod, 2021)
# The source made the active and inactive calls. The rule behind the calls is not given here.
# Columns and labels:
# [1] = target: Acetylcholinesterase (Electrophorus electricus) (UniProt O42275); experiment: Inhibition of electric eel AChE at 100 uM using acetylthiocholine chloride as a substrate incubated for 20 mins followed by substrate addition and measured after 20 mins by Ellman's method relative to control; conditions: time 40.0 min
# Acetylcholinesterase = Acetylcholinesterase (Electrophorus electricus, UniProt O42275); experiment: Inhibition of electric eel AChE using acetylthiocholine chloride as a substrate incubated for 20 mins followed by substrate addition and measured after 20 mins by Ellman's method
# [2] = target: Acetylcholinesterase (Electrophorus electricus) (UniProt O42275); experiment: Inhibition of electric eel AChE at 100 uM using acetylthiocholine chloride as a substrate incubated for 20 mins followed by substrate addition and measured after 20 mins by Ellman's method; conditions: time 40.0 min
# SH-SY5Y = experiment: Neuroprotective activity against H2O2-induced oxidative stress in human SH-SY5Y cells assessed as cell viability at 50 uM pretreated for 1 hr followed by H2O2 addition and measured after 4 hrs by MTT assay relative to control; format: functional; conditions: time 5 hrs, read-out: Activity
# [3] = target: Acetylcholinesterase (Electrophorus electricus) (UniProt O42275); experiment: Potency index, ratio of HPA IC50 to test compound IC50 for inhibition of electric eel AChE using acetylthiocholine chloride as a substrate incubated for 20 mins followed by substrate addition and measured after 20 mins by Ellman's method; conditions: time 40.0 min
# Sequence of Acetylcholinesterase (Electrophorus electricus) (O42275 24-633 limits assumed): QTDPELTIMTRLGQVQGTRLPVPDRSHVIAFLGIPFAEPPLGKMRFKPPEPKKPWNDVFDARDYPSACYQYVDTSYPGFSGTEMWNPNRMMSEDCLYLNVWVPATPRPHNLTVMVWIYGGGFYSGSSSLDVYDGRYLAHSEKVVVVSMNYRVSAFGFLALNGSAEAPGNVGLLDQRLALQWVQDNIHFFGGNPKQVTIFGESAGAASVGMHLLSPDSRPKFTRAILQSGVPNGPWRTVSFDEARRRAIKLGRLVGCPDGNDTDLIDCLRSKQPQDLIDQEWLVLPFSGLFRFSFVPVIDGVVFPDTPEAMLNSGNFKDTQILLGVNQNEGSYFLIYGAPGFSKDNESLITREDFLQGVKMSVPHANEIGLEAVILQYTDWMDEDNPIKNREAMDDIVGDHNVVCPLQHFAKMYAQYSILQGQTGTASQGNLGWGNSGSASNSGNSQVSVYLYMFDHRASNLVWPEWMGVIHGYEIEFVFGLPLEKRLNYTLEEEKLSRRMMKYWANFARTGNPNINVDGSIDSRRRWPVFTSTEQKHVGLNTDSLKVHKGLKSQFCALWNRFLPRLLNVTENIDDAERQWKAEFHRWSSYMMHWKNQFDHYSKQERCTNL
# Sequence of Acetylcholinesterase (O42275 whole entry): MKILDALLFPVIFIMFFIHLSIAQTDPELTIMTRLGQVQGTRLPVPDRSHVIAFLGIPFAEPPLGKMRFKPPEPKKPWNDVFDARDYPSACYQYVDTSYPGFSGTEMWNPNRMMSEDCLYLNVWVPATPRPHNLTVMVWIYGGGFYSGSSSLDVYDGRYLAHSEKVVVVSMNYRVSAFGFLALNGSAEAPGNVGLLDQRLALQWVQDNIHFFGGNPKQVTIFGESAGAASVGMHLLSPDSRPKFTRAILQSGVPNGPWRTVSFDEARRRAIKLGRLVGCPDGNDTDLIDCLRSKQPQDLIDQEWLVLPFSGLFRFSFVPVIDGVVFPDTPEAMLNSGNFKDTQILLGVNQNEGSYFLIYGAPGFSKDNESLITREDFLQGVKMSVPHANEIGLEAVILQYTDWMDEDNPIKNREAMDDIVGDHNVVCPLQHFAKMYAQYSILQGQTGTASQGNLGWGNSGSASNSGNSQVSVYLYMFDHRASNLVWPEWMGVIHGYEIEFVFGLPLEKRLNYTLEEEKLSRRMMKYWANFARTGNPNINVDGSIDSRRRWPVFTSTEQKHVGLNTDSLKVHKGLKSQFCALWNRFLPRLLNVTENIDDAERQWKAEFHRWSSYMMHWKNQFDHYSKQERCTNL
SMILES,inhibition [1],IC50 (Acetylcholinesterase),viability at 50 µM (SH-SY5Y),also measured
C/C=C1\[C@H]2C=C(C)C[C@]1(Nc1ccc(F)cc1)c1ccc(=O)[nH]c1C2,> 92%,4.5 µM,–,–
C/C=C1\[C@H]2C=C(C)C[C@]1(Nc1ccc(Cl)cc1)c1ccc(=O)[nH]c1C2,–,–,–,inhibition [2]: Active
C/C=C1\[C@H]2C=C(C)C[C@]1(Nc1ncccc1OC)c1ccc(=O)[nH]c1C2,–,–,–,inhibition [2]: Active
C/C=C1\[C@H]2C=C(C)C[C@]1(Nc1cc(C)cc(C)c1)c1ccc(=O)[nH]c1C2,–,–,> 100%,–
C/C=C1\[C@H]2C=C(C)C[C@]1(Nc1cccc(C)c1)c1ccc(=O)[nH]c1C2,> 92%,47 µM,> 100%,–
C/C=C1\[C@H]2C=C(C)C[C@]1(Nc1cccc3ncccc13)c1ccc(=O)[nH]c1C2,–,–,> 100%,–
C/C=C1\[C@H]2C=C(C)C[C@]1(Nc1cccc(C)n1)c1ccc(=O)[nH]c1C2,–,–,> 100%,–
C/C=C1\[C@H]2C=C(C)C[C@]1(Nc1ccc(OC)cn1)c1ccc(=O)[nH]c1C2,106%,1.5 µM,144%,Ratio IC50 [3]: 7.6
C/C=C1\[C@H]2C=C(C)C[C@]1(Nc1cccc(OC)c1)c1ccc(=O)[nH]c1C2,–,–,–,inhibition [2]: Active
C/C=C1\[C@H]2C=C(C)C[C@]1(Nc1cc(C)ccn1)c1ccc(=O)[nH]c1C2,–,–,> 100%,inhibition [2]: Active
C/C=C1\[C@H]2C=C(C)C[C@]1(Nc1ncc(C)cc1C)c1ccc(=O)[nH]c1C2,> 92%,43 µM,> 100%,–
C/C=C1\[C@H]2C=C(C)C[C@]1(Nc1c(C)cc(OC)cc1C)c1ccc(=O)[nH]c1C2,96%,3.9 µM,> 100%,–
C/C=C1\[C@H]2C=C(C)C[C@]1(Nc1ccc(C)cc1)c1ccc(=O)[nH]c1C2,–,–,> 100%,–
C/C=C1\[C@H]2C=C(C)C[C@]1(Nc1cccc(F)c1)c1ccc(=O)[nH]c1C2,–,–,–,inhibition [2]: Active
C/C=C1\[C@H]2C=C(C)C[C@]1(Nc1ccc3c(c1)OCO3)c1ccc(=O)[nH]c1C2,–,–,> 100%,–
C/C=C1\[C@H]2C=C(C)C[C@]1(Nc1ccc(OCC)cc1)c1ccc(=O)[nH]c1C2,–,–,> 100%,–
C/C=C1\[C@H]2C=C(C)C[C@]1(Nc1ncccc1C)c1ccc(=O)[nH]c1C2,> 92%,40 µM,–,–
